# Laboratory results taken from patent publication US9753018B2, “Selenium-containing compound” (Fisheries Research Agency, priority 2009, dated 2017).
# Columns and labels:
# [1] = DPPH radical-scavenging ability (RS50); format: biochemical; details: for EC50: concentration at which DPPH radical-scavenging rate was 50%, room temperature 30 minutes, absorbance 595 nm
# Protocol: In order to evaluate the chemical antioxidant ability of the selenium-containing compound (chemical formula 4: oxidized dimer) according to one embodiment of the invention, the 1,1-diphenyl-2-picrylhydrazyl (DPPH) radical-scavenging ability was measured (Hideo Kimura, Kota Naganuma, Masato Kojima, Masakazu Komatsu, Takumi Onda, and Masao Tsuji, Yamanashi Prefectural Industrial Technology Center Report, No. 22, pp. 59-63 (2008)).
# Specifically, a selenium-containing compound (selenium content: 1.62 μM) derived from the meat of Xiphias gladius, a 10 mM aqueous solution of a water-soluble vitamin E derivative (commercially available antioxidant) (Trolox (registered trademark) (CAS No.: 56305-04-5, manufactured by Roche)), and a 4.36 mM aqueous solution of (+)-ergothioneine (CAS No.: 497-30-3, manufactured by SIGMA) were repeatedly 2-fold diluted with purified water to prepare 2 to 128-fold diluted test solutions.
# 10 μl of the test solution and 100 μl of a DPPH solution (0.35 mM, prepared by dissolving 1.38 mg of DPPH in 5 ml of ethanol, and adding 5 ml of a 0.1 M phosphate buffer (pH: 6.8) to the solution) were mixed on a 96-well micro test plate (BD Falcon (registered trademark), #1722, manufactured by Becton, and Dickinson and Company), and reacted at room temperature for 30 minutes in a dark place. The absorbance at 595 nm was then measured. A case of using purified water (absorbance: 0.59) as the test solution was determined that the DPPH radical-scavenging rate was 0%, and a case of using 10 mM Trolox (registered trademark) (absorbance: 0.19) as the test solution was determined that the DPPH radical-scavenging rate was 100%. The concentration at which the DPPH radical-scavenging rate was 50% was determined to be the RS50 of each substance, and taken as the antioxidant ability.
# [2] = test system: human vessel endothelial cells (human umbilical cord vein HUV-EC-C); experiment: MTT assay of human vessel endothelial cells cultured with selenium compounds; format: cell-based
# Protocol: In order to clarify the intracellular function of the selenium-containing compound (chemical formula 4: oxidized dimer) according to one embodiment of the invention, the selenium-containing compound (chemical formula 4: oxidized dimer) according to one embodiment of the invention was administered to human vessel endothelial cells (human umbilical cord vein HUV-EC-C, Health Science Research Resources Bank (http://www.jhsf.or.jp)).
# Specifically, human vessel endothelial cells (10,000 cells/ml) were cultured on a 48-well plate using an MCDB131 medium (manufactured by Invitrogen) containing 10% fetal bovine serum. […] The passage number was set to 5 or less in order to maintain the properties of the human vessel endothelial cells.
# The mitochondrial respiratory chain activity was determined using an MTT assay kit (manufactured by Nacalai Tesque, Inc.). Specifically, after culturing the human vessel endothelial cells, an MTT solution was added to the culture solution in an amount 1/10th of that of the culture solution, and the cells were cultured at 37° C. for 3 hours under 5% carbon dioxide. An equal amount of isopropanol was then added to the culture solution to extract a formazan dye, and the absorbance at 595 nm was determined.
# [3] = test system: human vessel endothelial cells; experiment: Cell proliferation rate (MTT) under hydrogen peroxide oxidative stress; format: cell-based; details: 5 mM, 1 hour pre-culture, then hydrogen peroxide 25 or 50 μM, 24 hours
# Protocol: The in vivo antioxidant effect of the selenium-containing compound (chemical formula 4: oxidized dimer) according to one embodiment of the invention was determined using human vessel endothelial cells. Specifically, human vessel endothelial cells (10,000 cells/ml) were cultured on a 48-well plate using an MCDB131 medium containing 10% fetal bovine serum. The selenium-containing compound was added to the culture solution so that the final concentration was 5 mM (control: the selenium-containing compound was not added), and the cells were cultured at 37° C. for 1 hour under 5% carbon dioxide. After the addition of hydrogen peroxide to a final concentration of 25 or 50 μM, the cells were cultured at 37° C. for 24 hours under 5% carbon dioxide. The cell proliferation rate was then determined by the MTT assay. […] Specifically, it was confirmed that the selenium-containing compound (chemical formula 4: oxidized dimer) according to one embodiment of the invention has an in vivo antioxidant effect.
# [4] = test system: animal cells (ZE, YT, RTG-2, HUV-EC-C, AT2KY, TIG-S3, HEK293 cells); experiment: Cell proliferation-promoting effect on cultured cells (cell count by trypan blue staining); format: cell-based; details: 0-100 nM, 0-5 days, fish and human cell lines
# Protocol: Specifically, Danio rerio embryo ZE cells (National Research Institute of Fisheries Science), Seriola quinqueradiata tail fin YT cells (National Research Institute of Fisheries Science), and Oncorhynchus mykiss gonad RTG-2 cells (ATCCCCL55) were cultured in an L-15 medium containing 2% fetal bovine serum (30,000 cells/ml).
# Human vessel endothelial cells (human umbilical cord vein HUV-EC-C, Health Science Research Resources Bank (http://www.jhsf.or.jp)) were cultured in an MCDB131 medium containing 10% fetal bovine serum (10,000 cells/ml).
# (§1) AT cells derived from the skin of a human patient with ataxia telangiectasia syndrome (AT2KY, Health Science Research Resources Bank, JCRB0316), human skin TIG-S3 cells (Health Science Research Resources Bank, JCRB0544), and human kidney HEK293 cells (Health Science Research Resources Bank, JCRB9068) were cultured in a DMEM medium containing 10% fetal bovine serum (15,000 cells/ml).
# The selenium-containing compound was added to each culture medium (containing 2% serum) so that the final concentration was 0, 5, 10, 25, 50, or 100 nM. […] The cell count was determined by trypan blue staining after culturing the cells for 0, 1, 2, 3, 4, and 5 days.
# [5] = test system: AT cells derived from the skin of a human patient with ataxia telangiectasia syndrome (AT2KY); experiment: Cell proliferation-promoting effect on AT cells (cell count by trypan blue staining); format: cell-based; details: 0-100 nM, 37° C., 0-5 days
# Protocol: as §1
# The selenium-containing compound was added to each culture medium (containing 2% serum) so that the final concentration was 0, 5, 10, 25, 50, or 100 nM. The Danio rerio embryo ZE cells were cultured at 25° C., the Seriola quinqueradiata tail fin YT cells were cultured at 20° C., and Oncorhynchus mykiss gonad RTG-2 cells were cultured at 15° C., and the human vessel endothelial cells, the AT cells derived from the skin of a human patient with ataxia telangiectasia syndrome, the human skin TIG-S3 cells, and the human kidney HEK293 cells were cultured at 37° C. The cell count was determined by trypan blue staining after culturing the cells for 0, 1, 2, 3, 4, and 5 days. […]
# [6] = test system: hemoglobin of rabbit red cells; experiment: Metmyoglobin formation inhibitory effect (hemoglobin collected from red cells); format: cell-based; details: 10, 25 or 50 nM in medium; hemoglobin solution incubated 37° C. 3 hours; versus control
# Protocol: (§2) Preserved rabbit blood (Nippon Biotest Laboratories Inc.) was washed three times with a physiological saline solution (centrifuged at 2000 rpm and 4° C. for 5 min) to collect red cells. The red cells were suspended in a 4-fold amount of an RPMI medium (GIBCO (registered trademark) RPMI Medium 1640 manufactured by Invitrogen Co.), and cultured at 37° C. for 1 day using a carbon dioxide incubator. The selenium-containing compound was added to the culture solution so that the final concentration of the selenium-containing compound in the medium was 10, 25, or 50 nM (control: the selenium-containing compound was not added), and the cells were cultured. The red cells were then collected by centrifugation (2000×g, 4° C., 5 min), washed three times with a phosphate buffered saline (PBS), and collected by centrifugation. The red cells were hemolyzed by adding a 10 mM sodium phosphate buffer (pH: 7.2) to the red cell pellets, and centrifuged (15,000×g, 4° C., 10 min). The supernatant hemoglobin solution was then collected. The hemoglobin solution was diluted with a 100-fold amount of a 50 mM sodium phosphate buffer (pH: 6.8), and incubated at 37° C. for 3 hours. The absorbance ratio at 405 nm and 430 nm before and after incubation was measured, and the rate of metmyoglobin formation of the hemoglobin was calculated.
# rabbit red cells = experiment: Active oxygen level in red cells (hydroxyphenyl fluorescein); format: cell-based; details: HPF fluorescence; versus control
# Protocol: as §2, with “The red cells were hemolyzed by adding a 10 mM sodium phosphate buffer (pH: 7.2) to the red cell pellets, and centrifuged (15,000×g, 4° C., 10 min). The supernatant hemoglobin solution was then collected. The hemoglobin solution was diluted with a 100-fold amount of a 50 mM sodium phosphate buffer (pH: 6.8), and incubated at 37° C. for 3 hours.” left out
# The active oxygen level in the red cells was also measured using hydroxyphenyl fluorescein (HPF) (manufactured by Sekisui Medical Co., Ltd.). […] The fluorescence intensity (excitation wavelength: 490 nm, fluorescence wavelength: 515 nm) due to the reaction product with active oxygen was measured, and used as an index of the active oxygen level.
# [7] = Solubility (physico-chemical properties); format: physicochemical; details: solvents as named in the value
# [8] = test system: heme protein (myoglobin, hemoglobin); experiment: Heme iron binding effect (Se/Fe determination in heme proteins); parameters: species or system Thunnus orientalis, rabbit, Physeter macrocephalus; details: Se/Fe molar ratio of purified myoglobin and hemoglobin 0.003, 0.0003, 0.001
# Protocol: Since it was confirmed that the selenium-containing compound has a heme protein auto-oxidation inhibitory effect (see “5. Metmyoglobin formation inhibitory effect of selenium-containing compound”), the binding capability of the selenium-containing compound with heme proteins was determined. Physeter macrocephalus (sperm whale) myoglobin available from SIGMA was used. 100 g of the dark muscle of Thunnus orientalis was mixed with a 5-fold amount of cold water, ground using a POLYTRON™ homogenizer, and centrifuged (6000×g, 10 min). The supernatant liquid was collected, and passed through a Sephacryl-100 column (16 mm×60 cm, manufactured by Pharmacia) that was equilibrated with a 0.05 M Tris-HCl buffer (pH: 7) containing 0.1 M salt to purify myoglobin derived from the dark muscle of Thunnus orientalis. […]
# The selenium content in the Physeter macrocephalus myoglobin, the Thunnus orientalis myoglobin, the rabbit hemoglobin, and the Thunnus orientalis hemoglobin was measured. Selenium was detected from each sample. The elements contained in the Physeter macrocephalus myoglobin were measured by HPLC-ICP-MS.
# The sample was wet-decomposed using nitric acid and hydrogen peroxide. Iron was quantitatively determined using an inductively coupled plasma atomic emission spectrometer (ICP-AES) (“ICPE-9000” manufactured by Shimadzu Corporation), and selenium was quantitatively determined by fluorometry. […]
smiles,measurement,setting,value
"C[N+](C)(C)[C@@H](Cc1c[nH]c(=S)[nH]1)C(=O)[O-] [L-(+)-ergothioneine, reference compound]",EC50,[1],1700 µM
"Cc1c(C)c2c(c(C)c1O)CCC(C)(C(=O)O)O2 (stereo not shown) [Trolox, 6-hydroxy-2,5,7,8-tetrametylchroman-2-carboxylic acid, reference compound]",EC50,[1],880 µM
"C[N+](C)(C)C(Cc1cnc([Se][Se]c2ncc(CC(C(=O)[O-])[N+](C)(C)C)[nH]2)[nH]1)C(=O)[O-] (stereo not shown) [chemical formula 4, 3,3′-(2,2′-diselanediylbis(1H-imidazole-5,2-diyl))bis(2-(trimethylammonio)propanoate)]","concentration giving radical-scavenging ability equal to L-(+)-ergothioneine, as fraction of ergothioneine concentration","[1]; DPPH, relative to L-(+)-ergothioneine",1/907
same,"concentration giving radical-scavenging ability equal to Trolox, as fraction of Trolox concentration","[1]; DPPH, relative to water-soluble vitamin E derivative (Trolox)",1/456
same,radical-scavenging ability higher than Trolox by a factor,"[1]; chemical test, relative to Trolox",about 500
same,EC50,[1],1.9 µM
same,effect on cell proliferation (MTT),"[2]; 5 mM, 24 hours, 37° C.",cell proliferation-promoting effect
same,cytotoxicity compared with known selenium-containing compounds,"[2]; versus selenious acid, selenocystine, selenomethionine",very low cytotoxicity
same,cellular proliferative potential under oxidative stress,[3],improved
same,cell proliferation (cell count),[4],significantly promotes proliferation of animal cells
same,proliferation of AT cells,[5],effect of promoting proliferation of the AT cells
same,rate of metmyoglobin formation of hemoglobin,[6],lower than that of the control
same,active oxygen level in the red cells,rabbit red cells,lower than that of the control
same,Solubility,[7]; in acetone and acetonitrile,scarcely soluble in acetone and acetonitrile
same,Solubility,"[7]; in water, ethanol and methanol","Soluble in water, ethanol, and methanol;"
same,binding to heme protein,[8],bound to a heme protein
N[C@@H](C[Se][Se]C[C@H](N)C(=O)O)C(=O)O [selenocystine],effect on cell proliferation (MTT),[2]; 5 nM added to culture medium,cell death occurred
C[Se]CC[C@H](N)C(=O)O [selenomethionine],effect on cell proliferation (MTT),[2]; 5 nM added to culture medium,cell death occurred
O=[Se](O)O [sodium selenite],effect on cell proliferation (MTT),[2]; 5 nM added to culture medium,cell death occurred
